Assay results taken from patent US20120264735A1 (priority 2009, published 2012).

molecular target: T1, c-Met kinase (recombinant c-Met) (Homo sapiens, UniProt P08581); test: In vitro kinase assay I (homogeneous time-resolved fluorescence tyrosine kinase assay); format: biochemical
T1 construct: 0.27 nM recombinant c-Met
In short: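 Biotinylated peptide (0.5 μM) phosphorylated by 0.2 nM recombinant c-Met with 50 μM MgATP, 60 min at room temperature, pH 7.4, 5% DMSO. EDTA stop; HTRF read with Eu-anti-phosphotyrosine antibody and streptavidin-APC. IC50 from 4-parameter logistic fit.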

T1 sequence (P08581 25-1390): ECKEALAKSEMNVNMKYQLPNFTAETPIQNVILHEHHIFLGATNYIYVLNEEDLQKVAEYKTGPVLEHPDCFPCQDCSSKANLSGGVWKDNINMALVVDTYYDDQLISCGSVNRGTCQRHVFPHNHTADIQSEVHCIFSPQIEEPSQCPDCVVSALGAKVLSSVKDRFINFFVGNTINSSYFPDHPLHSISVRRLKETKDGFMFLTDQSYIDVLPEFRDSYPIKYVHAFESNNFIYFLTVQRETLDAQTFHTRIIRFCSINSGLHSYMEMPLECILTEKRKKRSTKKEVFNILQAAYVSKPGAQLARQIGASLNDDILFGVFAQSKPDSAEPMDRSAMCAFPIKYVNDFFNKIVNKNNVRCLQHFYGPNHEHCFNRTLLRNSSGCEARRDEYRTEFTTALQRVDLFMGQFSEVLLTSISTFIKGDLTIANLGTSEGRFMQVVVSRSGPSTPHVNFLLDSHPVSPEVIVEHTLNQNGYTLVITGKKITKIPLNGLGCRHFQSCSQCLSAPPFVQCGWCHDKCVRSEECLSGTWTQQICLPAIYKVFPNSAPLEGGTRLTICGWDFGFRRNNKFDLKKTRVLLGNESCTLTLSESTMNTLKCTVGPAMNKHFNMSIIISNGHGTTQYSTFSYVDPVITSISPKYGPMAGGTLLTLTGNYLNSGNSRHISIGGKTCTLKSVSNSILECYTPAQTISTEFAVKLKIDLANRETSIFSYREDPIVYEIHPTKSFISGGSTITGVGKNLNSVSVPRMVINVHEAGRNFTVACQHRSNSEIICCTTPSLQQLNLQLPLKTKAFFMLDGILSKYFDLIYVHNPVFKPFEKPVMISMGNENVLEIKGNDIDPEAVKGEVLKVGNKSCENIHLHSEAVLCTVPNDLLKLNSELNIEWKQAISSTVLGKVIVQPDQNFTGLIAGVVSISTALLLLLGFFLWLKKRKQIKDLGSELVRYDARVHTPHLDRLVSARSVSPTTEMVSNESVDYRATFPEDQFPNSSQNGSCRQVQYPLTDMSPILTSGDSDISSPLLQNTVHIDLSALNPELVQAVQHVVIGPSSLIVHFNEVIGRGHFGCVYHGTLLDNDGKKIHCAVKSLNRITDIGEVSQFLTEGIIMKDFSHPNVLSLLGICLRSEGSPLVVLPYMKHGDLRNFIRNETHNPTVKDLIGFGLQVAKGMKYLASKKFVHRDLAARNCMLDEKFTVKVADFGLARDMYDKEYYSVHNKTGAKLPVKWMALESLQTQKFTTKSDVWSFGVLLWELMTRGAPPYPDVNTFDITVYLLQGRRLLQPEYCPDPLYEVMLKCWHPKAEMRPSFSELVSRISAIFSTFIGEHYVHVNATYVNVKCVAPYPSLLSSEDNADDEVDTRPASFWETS

First: CC(c1cccc(-c2ncc(-n3cnnc3)cn2)c1)c1nn(-c2cnn(C)c2)ccc1=O (single isomer, unassigned) [Example 240, 1-(1-methyl-1H-pyrazol-4-yl)-3-[(1R or S)-1-{3-[5-(4H-1,2,4-triazol-4-yl)pyrimidin-2-yl]phenyl}ethyl]pyridazin-4(1H)-one]
Second: CC(c1cccc(-c2ncc(C3CC3)cn2)c1)c1nn(-c2cnn(C)c2)ccc1=O (single isomer, unassigned) [Example 405, 3-{(1S or R)-1-[3-(5-cyclopropyl-pyrimidin-2-yl)phenyl]ethyl}-1-(1-methyl-1H-pyrazol-4-yl)pyridazin-4(1H)-one]
The IC50 of the first is higher: 100 to 1000 nM for the first, less than 100 nM for the second.

Compared with CCCc1nc(-c2cccc(Cc3nn(-c4cnn(C)c4)ccc3=O)c2)n[nH]1 [Example 185, 1-(1-Methyl-1H-pyrazol-4-yl)-3-[3-(5-propyl-1H-1,2,4-triazol-3-yl)benzyl]pyridazin-4(1H)-one], Cc1cnc(-c2cccc(Cc3nn(-c4cnn(C)c4)ccc3=O)c2)s1 [Example 19, 1-(1-methyl-1H-pyrazol-4-yl)-3-[3-(5-methyl-1,3-thiazol-2-yl)benzyl]pyridazin-4(1H)-one] is lower in IC50: 100 to 1000 nM for the first, less than 100 nM for the second.

O=C(Nc1cccc(Cc2nn(-c3ccc(F)c(F)c3)ccc2=O)c1)OCC1CCOCC1 [Example 527, tetrahydro-2H-pyran-4-ylmethyl (3-{[1-(3,4-difluorophenyl)-4-oxo-1,4-dihydropyridazin-3-yl]methyl}phenyl)carbamate] and O=C(Nc1cccc(Cc2nn(-c3cc(F)c(F)c(F)c3)ccc2=O)c1)OCC1COCCO1 (racemic) [Example 513, rac-1,4-dioxan-2-ylmethyl (3-{[4-oxo-1-(3,4,5-trifluorophenyl)-1,4-dihydropyridazin-3-yl]methyl}phenyl)carbamate] cannot be ordered by IC50: less than 100 nM for the first, less than 100 nM for the second.

CC1(COc2cnc(-c3cccc(Cc4nn(-c5ccc(F)c(F)c5)ccc4=O)c3)nc2)COC1 [Example 329, 1-(3,4-difluorophenyl)-3-(3-{5-[(3-methyloxetan-3-yl)methoxy]pyrimidin-2-yl}benzyl)pyridazin-4(1H)-one] and CCc1cnc(-c2cccc(Cc3nn(-c4ccc(F)c(F)c4)ccc3=O)c2)nc1 [Example 407, 1-(3,4-difluorophenyl)-3-[3-(5-ethylpyrimidin-2-yl)benzyl]pyridazin-4(1H)-one] cannot be ordered by IC50: less than 100 nM for the first, less than 100 nM for the second.

CCn1cnc(-c2cccc(Cc3nn(-c4cc(F)cc(C#N)c4)ccc3=O)c2)n1 [Example 83, 3-{3-[3-(1-ethyl-1H-1,2,4-triazol-3-yl)benzyl]-4-oxopyridazin-1(4H)-yl}-5-fluorobenzonitrile] and CCCn1cnc(-c2cccc(Cc3nn(-c4cccc(C#N)c4)ccc3=O)c2)n1 [Example 85, 3-{4-oxo-3-[3-(1-propyl-1H-1,2,4-triazol-3-yl)benzyl]pyridazin-1(4H)-yl}benzonitrile] cannot be ordered by IC50: less than 100 nM for the first, less than 100 nM for the second.

COCCOC(=O)Nc1cccc(Cc2nn(-c3cc(Cl)cc(C#N)c3)ccc2=O)c1 [Example 127, 2-methoxyethyl (3-{[1-(3-chloro-5-cyanophenyl)-4-oxo-1,4-dihydropyridazin-3-yl]methyl}phenyl)carbamate] and COCCOCCOC(=O)Nc1cccc(Cc2nn(-c3cccc(C#N)c3)ccc2=O)c1 [Example 600, 2-(2-methoxyethoxy)ethyl (3-{[1-(3-cyanophenyl)-4-oxo-1,4-dihydropyridazin-3-yl]methyl}phenyl)carbamate] cannot be ordered by IC50: less than 100 nM for the first, less than 100 nM for the second.

First: COC(C)(C)c1cnc(-c2cccc(Cc3nn(-c4cnn(C)c4)ccc3=O)c2)nc1 [Example 168, 3-{3-[5-(1-methoxy-1-methylethyl)pyrimidin-2-yl]benzyl}-1-(1-methyl-1H-pyrazol-4-yl)pyridazin-4(1H)-one]
Second: COC(=O)c1cnc(-c2cccc(Cc3nn(-c4cnn(C)c4)ccc3=O)c2)nc1 [Example 15, methyl 2-(3-{[1-(1-methyl-1H-pyrazol-4-yl)-4-oxo-1,4-dihydropyridazin-3-yl]methyl}phenyl)pyrimidine-5-carboxylate]
The IC50 of the first is higher: 100 to 1000 nM for the first, less than 100 nM for the second.

Cn1cc(-n2ccc(=O)c(Cc3cccc(-c4ncc(O[C@@H]5COC[C@@H]5F)cn4)c3)n2)cn1 (racemic) [Example 390, rac-3-(3-{5-[(cis-4-fluorotetra-hydrofuran-3-yl}oxy]pyrimidin-2-yl}benzyl)-1-(1-methyl-1H-pyrazol-4-yl)pyridazin-4(1H)-one] and Cn1cc(-n2ccc(=O)c(Cc3cccc(-c4ncc(OCCO)cn4)c3)n2)cn1 [Example 264, 3-{3-[5-(2-hydroxyethoxy)pyrimidin-2-yl]benzyl}-1-(1-methyl-1H-pyrazol-4-yl)pyridazin-4(1H)-one] cannot be ordered by IC50: less than 100 nM for the first, less than 100 nM for the second.

CC(c1cccc(-c2ncc(OC(F)F)cn2)c1)c1nn(-c2cnn(C)c2)ccc1=O (single isomer, unassigned) [Example 210, 3-[(1R or S)-1-{3-[5-(difluoromethoxy)pyrimidin-2-yl]phenyl}ethyl]-1-(1-methyl-1H-pyrazol-4-yl)pyridazin-4(1H)-one] and CCn1cc(-n2ccc(=O)c(C(C)c3cccc(-c4ncc(OCC(F)F)cn4)c3)n2)cn1 (single isomer, unassigned) [Example 294, 3-[(1R or S)-1-{3-[5-(2,2-difluoroethoxy)pyrimidin-2-yl]phenyl}ethyl]-1-(1-ethyl-1H-pyrazol-4-yl)pyridazin-4(1H)-one] cannot be ordered by IC50: less than 100 nM for the first, less than 100 nM for the second.

First: CC(c1cccc(-c2ncc(O[C@H]3CCNC[C@H]3F)cn2)c1)c1nn(-c2cnn(C)c2)ccc1=O (some centres unmarked) [Example 344]
Second: CCCC(c1cccc(-c2ncc(OCC)cn2)c1)c1nn(-c2cnn(C)c2)ccc1=O (single isomer, unassigned) [Example 207, 3-{(1S or R)-1-[3-(5-ethoxypyrimidin-2-yl)phenyl]butyl}-1-(1-methyl-1H-pyrazol-4-yl)pyridazin-4(1H)-one]
The IC50 of the first is lower: less than 100 nM for the first, 100 to 1000 nM for the second. The first is the more potent here.

CCn1cc(-n2ccc(=O)c(C(C)c3cccc(-c4ncc(OCCN5CCOCC5)cn4)c3)n2)cn1 (single isomer, unassigned) [Example 300, 1-(1-ethyl-1H-pyrazol-4-yl)-3-[(1R or S)-1-{3-[5-(2-morpholin-4-ylethoxy)pyrimidin-2-yl]phenyl}ethyl]pyridazin-4(1H)-one] and CCCn1cnc(-c2cccc(C(C)c3nn(-c4cnn(C)c4)ccc3=O)c2)n1 (single isomer, unassigned) [Example 685, 1-(1-methyl-1H-pyrazol-4-yl)-3-{(1R or S)-1-[3-(1-propyl-1H-1,2,4-triazol-3-yl)phenyl]ethyl} pyridazin-4(1H)-one] cannot be ordered by IC50: less than 100 nM for the first, less than 100 nM for the second.

Compared with Cn1cc(-n2ccc(=O)c(Cc3cccc(NC(=O)NC4CC4)c3)n2)cn1 [Example 492, 1-cyclopropyl-3-(3-{[1-(1-methyl-1H-pyrazol-4-yl)-4-oxo-1,4-dihydropyridazin-3-yl]methyl}phenyl)urea], CCCOC(=O)Nc1cccc(Cc2nn(-c3cnn(C4CCOC4)c3)ccc2=O)c1 (racemic) [Example 98, rac-propyl [3-({4-oxo-1-[1-(tetrahydrofuran-3-yl)-1H-pyrazol-4-yl]-1,4-dihydropyridazin-3-yl}methyl)phenyl]carbamate] is lower in IC50: 100 to 1000 nM for the first, less than 100 nM for the second. The second is the more potent here.

First: Cc1noc(C)c1-c1cnc(-c2cccc(Cc3nn(-c4cnn(C)c4)ccc3=O)c2)nc1 [Example 424, 3-{3-[5-(3,5-dimethylisoxa-zol-4-yl)pyrimidin-2-yl]benzyl}-1-(1-methyl-1H-pyrazol-4-yl)pyridazin-4(1H)-one]
Second: C[C@H](O)[C@H](C)Oc1cnc(-c2cccc(Cc3nn(-c4cnn(C)c4)ccc3=O)c2)nc1 (single isomer, unassigned) [Example 375]
The IC50 of the first is higher: 100 to 1000 nM for the first, less than 100 nM for the second.

Cn1cc(-n2ccc(=O)c(Cc3cccc(NC(=O)OCC(F)(F)CN4CCOCC4)c3)n2)cn1 [Example 525, 2,2-difluoro-3-morpholin-4-ylpropyl (3-{[1-(1-methyl-1H-pyrazol-4-yl)-4-oxo-1,4-dihydropyridazin-3-yl]methyl}phenyl)carbamate] and CC(C)COC(=O)Nc1cccc(Cc2nn(-c3cnn(CCC(=O)NC4COC4)c3)ccc2=O)c1 [Example 704, 2-methylpropyl {3-[(1-{1-[3-(oxetan-3-ylamino)-3-oxopropyl]-1H-pyrazol-4-yl}-4-oxo-1,4-dihydropyridazin-3-yl)methyl]phenyl} carbamate] cannot be ordered by IC50: less than 100 nM for the first, less than 100 nM for the second.

O=c1ccn(-c2ccc(Cl)cc2)nc1Cc1ccc2ncccc2c1 [Example 43, 1-(4-chlorophenyl)-3-(quinolin-6-ylmethyl)pyridazin-4(1H)-one] and Cn1cc(-n2ccc(=O)c(Cc3ccc4ncccc4c3)n2)cn1 [Example 55, 1-(1-methyl-1H-pyrazol-4-yl)-3-(quinolin-6-ylmethyl)pyridazin-4(1H)-one] fall in the same range of IC50: 100 to 1000 nM for the first, 100 to 1000 nM for the second.

First: CCOC(=O)Nc1cccc(Cc2nn(-c3cccc(OCC)c3)ccc2=O)c1 [Example 650, Ethyl(3-{[1-(3-ethoxyphenyl)-4-oxo-1,4-dihydropyridazin-3-yl]methyl}phenyl)carbamate]
Second: CCOc1cnc(-c2cccc(Cc3nn(-c4ccc(C#N)cc4)ccc3=O)c2)nc1 [Example 137, 4-{3-[3-(5-ethoxypyrimidin-2-yl)benzyl]-4-oxopyridazin-1(4H)-yl}benzonitrile]
The IC50 of the first is higher: 100 to 1000 nM for the first, less than 100 nM for the second.

Cn1cc(-n2ccc(=O)c(Cc3ccc4ncc(OCC5(C)COC5)cc4c3)n2)cn1 [Example 62, 3-({3-[(3-methyloxetan-3-yl)methoxy]quinolin-6-yl}methyl)-1-(1-methyl-1H-pyrazol-4-yl)pyridazin-4(1H)-one] and Cn1cc(-n2ccc(=O)c(Cc3cccc(-c4ncc(OCc5ccsn5)cn4)c3)n2)cn1 [Example 284, 3-{3-[5-(isothiazol-3-ylmethoxy)pyrimidin-2-yl]benzyl}-1-(1-methyl-1H-pyrazol-4-yl)pyridazin-4(1H)-one] cannot be ordered by IC50: less than 100 nM for the first, less than 100 nM for the second.

Cn1cc(-n2ccc(=O)c(Cc3cccc(-c4ncc(C(=O)NCC5CCCOC5)cn4)c3)n2)cn1 (racemic) [Example 478, rac-2-(3-{[1-(1-methyl-1H-pyrazol-4-yl)-4-oxo-1,4-dihydro-pyridazin-3-yl]methyl}phenyl)-N-tetrahydro-2H-pyran-3-ylmethyl)pyrimidine-5-carboxamide] was tested, and the IC50 was less than 100 nM.
